Experimental data published in patent US8859628B2, “Method for preventing, treating and diagnosing disorders of protein aggregation” (priority 2003, dated 2014).
“Also recorded” adds a separate entry of the source. Marks after values point to notes of the source that are not given here.

Legend:
TgCRND8 mice [1] = assay: Gliosis quantitation (GFAP astrocytes, CD68 microglia); format: in vivo, mouse; conditions: prevention
Source text: Gliosis Quantitation—Five randomly selected, evenly spaced, sagittal sections were collected from paraformaldehyde-fixed and frozen hemispheres of treated and control mice. Sections were immunolabelled for astrocytes with anti-rat GFAP IgG2a (Dako; diluted 1:50) and for microglia with anti-rat CD68 IgG2b (Dako; 1:50).
Serial sagittal sections were stained with the astrocytic marker glial fibrillary acidic protein (GFAP) and quantitated for percent brain area covered by astrogliosis.

TgCRND8 mice [2] = assay: Survival census (Kaplan-Meier); format: in vivo, mouse; conditions: at 175 days; n=35 per group
Experimental: Survival Census—The probability of survival was assessed by the Kaplan-Meier technique, computing the probability of survival at every occurrence of death, thus making it suitable for small sample sizes. For the analyses of survival, 35 mice were used for each treatment group. The comparison between treatments was reported using the Tarone-Ware test.

TgPS1xAPP mice = assay: Plaque burden in double transgenic PS1 x APP model (prophylactic trial); format: in vivo, mouse; conditions: 2 months of age
Source text: Tg PS1 x APP mice are an enhanced model of Alzheimer's disease which express a mutant human PS1 transgene encoding two familial mutations (M146L and L286V) in conjunction with the human APP transgene encoding the Indiana and Swedish familial mutations. These animals develop robust expression of cerebral Aβ levels and amyloid deposition by 30-45 days of age.

TgCRND8 mice [3] = assay: Cerebral Aβ content (Aβ40 and Aβ42 kits on hemi-brain homogenates); format: in vivo, mouse; set-up: Total Aβ: unit not given here
Experimental: (§1) Plasma and Cerebral Aβ Content—Hemi-brain samples were homogenized in a buffered sucrose solution, followed by either 0.4% diethylamine/100 mM NaCl for soluble Aβ levels or cold formic acid for the isolation of total Aβ. After neutralization the samples were diluted and analyzed for Aβ40 and Aβ42 using commercially available kits (BIOSOURCE International). Each hemisphere was analyzed in triplicate with the mean±SEM reported. Western blot analyses were performed on all fractions using urea gels for Aβ species analyses. Aβ was detected using 6E10 (BIOSOURCE International) and Enhanced Chemiluminenscence (Amersham).
as §1, with “reported.” for “reported. Western blot analyses were performed on all fractions using urea gels for Aβ species analyses. Aβ was detected using 6E10 (BIOSOURCE International) and Enhanced Chemiluminenscence (Amersham).”

TgCRND8 mice [4] = conditions: mouse, in vivo
Source text: Animals were sacrificed after one month of treatment and analysed for pathological outcomes.
In these experiments, the dosage and oral administration of compounds, and the behavioral and neurochemical assays were the same as those employed in the above treatment experiments.

TgCRND8 mice [5] = assay: Morris Water Maze, spatial reference memory version, five-day trial paradigm (prevention study); format: in vivo, mouse; conditions: 6 months of age
Experimental: Age and sex-matched cohorts of TgCRND8 mice and non-transgenic littermates (n=35 in each cohort) were either untreated, or were given a compound of the present invention as indicated below at 30 mg/day/mouse beginning at age of about 6 weeks. The mice were followed for outcome measures cognitive function, brain Aβ levels, brain pathology, and survival at 4 months and 6 months of age.
Two cohorts entered the study at 6 weeks of age and outcomes were analyzed at 4- and 6-months of age. The body weight, coat characteristics and in cage behavior was monitored. All experiments were performed according to the Canadian Council on Animal Care guidelines.
Behavioral tests—After non-spatial pre-training, mice underwent place discrimination training for 5 days with 4 trials per day. Behavioral data was analyzed using a mixed model of factorial analysis of variance (ANOVA) with drug or genotype and training sessions as repeated measure factors.
The cognitive function of TgCRND8 mice was assessed using the spatial reference memory version of the Morris Water Maze using a five-day trial paradigm (FIGS. 1C-1H). […] The improved performance was also not due to nutritional or caloric effects because body weight, activity, and coat condition were not different between treated and untreated cohorts. […] Gender effects were not significant between any treatment group (p=0.85).

TgCRND8 mice [6] = assay: Vascular amyloid burden; format: in vivo, mouse; conditions: 6 months of age
Experimental: (§2) Cerebral amyloid burden—Brains were removed and one hemisphere was fixed in 4% paraformaldehyde and embedded in paraffin wax in the mid saggital plane. To generate sets of systematic uniform random sections, 5 μm serial sections were collected across the entire hemisphere. Sets of sections at […] intervals were used for analyses (10-14 sections/set). Plaque were identified after antigen retrieval with formic acid, and incubated with primary anti-Aβ antibody (Dako M-0872), followed by secondary antibody (Dako StreptABCcomplex/horseradish kit). End products were visualized with DAB counter-stained with hematoxylin. Amyloid plaque burden was assessed using Leco IA-3001 image analysis software interfaced with Leica microscope and Hitachi KP-M1U CCD video camera. Vascular burden was analyzed similarly and a dissector was used to measure the diameter of affected vessels.
Alzheimer's disease is characterized by the presence of both parenchymal and vascular amyloid deposits. In untreated 6 month old TgCRND8 mice approximately 0.03% of the brain area is associated with vascular amyloid.

TgCRND8 mice [7] = assay: Plasma Aβ levels; format: in vivo, mouse
Experimental: as §1
as §1, with “reported.” for “reported. Western blot analyses were performed on all fractions using urea gels for Aβ species analyses. Aβ was detected using 6E10 (BIOSOURCE International) and Enhanced Chemiluminenscence (Amersham).”

TgCRND8 mice [8] = assay: Cerebral amyloid plaque burden (anti-Aβ immunostaining, image analysis); format: in vivo, mouse
Experimental: as §2
as §2, with “camera.” for “camera. Vascular burden was analyzed similarly and a dissector was used to measure the diameter of affected vessels.”

[9] = 1 month treatment from 5 months of age
[10] = 1 month treatment, 30 mg/mouse/day from 5 months, analyzed at 6 months of age
[11] = 4 month prevention, 30 mg/mouse/day from 6 weeks of age
[12] = 6 month prevention, 30 mg/mouse/day from 6 weeks of age
[13] = prevention, 6 months of age, vs untreated TgCRND8
[14] = prevention, four months of age, vs untreated TgCRND8

O[C@H]1[C@H](O)[C@@H](O)[C@H](O)[C@@H](O)[C@@H]1O [Scyllo-Inositol, scyllo-inositol]
astrogliosis/gliosis vs untreated (TgCRND8 mice [1]; 6 months of age): significantly decreased amyloid burden and gliosis
astrogliosis, percent brain area covered (GFAP) (TgCRND8 mice [1]; 6-months of age): 0.269±0.028%
microglial activation, % brain area (TgCRND8 mice [1]; 6 months): 0.20±0.008%
survival (TgCRND8 mice [2]): 72%
amyloid/plaque burden vs untreated (words) (TgPS1xAPP mice; listed as Scyllo-inositol): significantly decreased amyloid burden
amyloid/plaque burden vs untreated (words) (TgPS1xAPP mice; listed as scyllo-inositol): significantly reduced
% brain area covered in plaques (TgPS1xAPP mice; treated from weaning): 0.065±0.016%
Plaque Count (TgPS1xAPP mice; treated from weaning): 1514±510
mean plaque size (TgPS1xAPP mice; treated from weaning): 149±5 μm^2
Aβ load vs untreated (TgCRND8 mice [3]; [9]): significantly decreased the plaque burden and the Aβ load
Total Aβ (TgCRND8 mice [3]; [10]): 15194 ± 579
Total Aβ (TgCRND8 mice [3]; [11]): 5089 ± 173
Total Aβ (TgCRND8 mice [3]; [12]): 15621 ± 151
reduction in Aβ40 levels (TgCRND8 mice [3]; [13]): 32%
reduction in Aβ42 (TgCRND8 mice [3]; [13]): 20%
decrease of total brain Aβ40 (TgCRND8 mice [3]; [14]): 62%
decrease of total brain Aβ42 (TgCRND8 mice [3]; [14]): 22%
effects on blood chemistry or organ function (TgCRND8 mice [4]): do not exhibit obvious deleterious effects on blood chemistry or organ function
cognitive function, treated TgCRND8 mice vs non-Tg littermates (words) (TgCRND8 mice [5]): indistinguishable from non-Tg littermates on all days; also recorded: approached that of non-Tg littermates
cognitive function, treated vs untreated TgCRND8 mice (words) (TgCRND8 mice [5]): performed significantly better than untreated TgCRND8 mice
mean size of cerebrovascular plaques (TgCRND8 mice [6]; prevention): 154±16
vascular amyloid burden vs untreated (words) (TgCRND8 mice [6]; prevention, listed as Scyllo-inositol): significantly decreased the total vascular load
vascular amyloid burden vs untreated (words) (TgCRND8 mice [6]; prevention, listed as scyllo-inositol): significantly decreased the vascular amyloid burden
vascular amyloid deposition in small vessels (TgCRND8 mice [6]; smaller vessels): 56±2%
Plasma Aβ Levels (TgCRND8 mice [7]; 1 month treatment): 1980 ± 146 pg/mL
effect on plasma Aβ levels in comparison to untreated (words) (TgCRND8 mice [7]; [9]): Neither myo-inositol, epi-inositol nor scyllo-inositol treatment had any effect on plasma Aβ levels
Plasma Aβ Levels Aβ40 (TgCRND8 mice [7]; 2 month treatment): 4507 ± 207 pg/mL
Plasma Aβ Levels Aβ42 (TgCRND8 mice [7]; 2 month treatment): 3035 ± 236 pg/mL
Plasma Aβ Levels (TgCRND8 mice [7]; 4 month prevention): 952 ± 49 pg/mL
Plasma Aβ Levels (TgCRND8 mice [7]; 6 month prevention): 905 ± 55 pg/mL
effect on plasma Aβ levels in comparison to untreated (words) (TgCRND8 mice [7]; prevention, 4- and 6-months of age): Neither epi-inositol nor scyllo-inositol treatment had any effect on plasma Aβ levels
plaque burden vs untreated (TgCRND8 mice [8]; [9]): significantly decreased the plaque burden and the Aβ load
Plaque Area (TgCRND8 mice [8]; [10]): 420027 ± 14986* μm^2
Plaque Count (TgCRND8 mice [8]; [10]): 1260 ± 27
Total Plaque Area/Total Brain Area (TgCRND8 mice [8]; [10]): 0.119 ± 0.010 %
Plaque Area (TgCRND8 mice [8]; [11]): 63847 ± 2895 μm^2
Plaque Count (TgCRND8 mice [8]; [11]): 598 ± 19
Total Plaque Area/Total Brain Area (TgCRND8 mice [8]; [11]): 0.015 ± 0.001 %
Plaque Area (TgCRND8 mice [8]; [12]): 262379 ± 5373† μm^2
Plaque Count (TgCRND8 mice [8]; [12]): 774 ± 10
Total Plaque Area/Total Brain Area (TgCRND8 mice [8]; [12]): 0.079 ± 0.013 %
amyloid/plaque burden vs untreated (words) (TgCRND8 mice [8]; 6 months of age, prevention): significantly decreased amyloid burden and gliosis; also recorded: decreases plaque deposition
mean plaque size (TgCRND8 mice [8]; prevention, 4 months of age): 103±4 μm^2
decrease in brain area covered with plaques (TgCRND8 mice [8]; prevention, 6 months of age): 35%
mean plaque size (TgCRND8 mice [8]; prevention, 6 months of age): 339±10 μm^2
reduction in plaque number (TgCRND8 mice [8]; prevention, 6 months of age): 20%
